Source: patent publication US7998739B2, “Methods of activating NKT cells” (The Scipps Research Institute, priority 2004, dated 2011)
“Also recorded” adds a separate entry of the source.

What was measured:
human Vα24 NKT cells = assay: Expansion of hVα24 NKT cells in 4-day cultures of fresh PBMC (anti-Vα24 / CD1d-αGalCer tetramer staining); assay type: cell-based; conditions: 100 ng/ml
Procedure: FIG. 3B depicts frequency of hVα24 NKT PBL, doubly-stained by anti-Vα24 and CD1d-αGalCer tetramers, in PBMC cultured for 4 days in the presence of 100 ng/ml αGalCer, iGb3, or medium alone, as indicated.
Lymphocyte preparation and flow cytometry. Lymphocyte preparations, CD1d-αGalCer tetramers, and flow cytometry staining were done according to standard protocols, e.g., those described in Zhou D et al., Science 303, 523-27 (2004), incorporated herein by reference in its entirety.
Chemically synthesized globotrihexosylceramide (Gb3, Gal α1,4 Gal β1,4 Glc β1,1 Cer) and isoglobotrihexosylceramide (iGb3, Gal α1,3 Gal β1,4 Glc β1,1 Cer) were tested for their ability to stimulate NKT cells in the presence of antigen-presenting cells.

human Vα24 NKT line = assay: Cytokine secretion by human Vα24 NKT line stimulated with glycolipid-pulsed antigen presenting cells (ELISA); assay type: cell-based; conditions: for stimulation of human Vα24 NKT cells: in the presence of antigen-presenting cells; for Th1 (IFNγ) cytokine secretion by polyclonal human NKT line / Th2 (IL4) cytokine secretion by polyclonal human NKT line: 100 ng/ml in FIG. 3C right panel
Procedure: FIG. 3C left panel depicts IFN-γ production by a human Vα24 NKT line stimulated with a range of concentrations of iGb3 and αGalCer in the presence of irradiated PBMC as CD1d-expressing antigen presenting cells. The right panel depicts IFN-γ vs. IL-4 production by the human Vα24 NKT line in response to irradiated PBMC and 100 ng/ml of iGb3 of synthetic, purified and enzymatic origin, vs. 100 ng/ml of αGalCer, Gb3 or LacCer, as indicated.
(§1) CD1d-restricted T cell responses. Antigen presenting cells were mouse spleen cells cultured at 5×10^5 cells/well, mouse bone marrow-derived dendritic cells generated in the presence of GMC-SF and IL4, activated overnight with 10 ng/ml TNF-α and cultured at 5×10^4 cells/well, and human PBMC or GM-CSF/IL-4 cultured PBMC-derived dendritic cells cultured at 2.5×10^5 cells/well. NKT hybridomas were cultured at 5×10^4 cells/well and the human NKT line was cultured at 2.5×10^5 cells/well. Cytokines released in the culture supernatant were measured by standard ELISA for human IL-4 and IFN-γ (Pharmingen-Becton Dickinson, CA), and the indicator CTLL IL2 bioassay for mouse hybridomas. NKT hybridomas DN32.D3 (Vα14^+), TCBII (Vα14^−), TBA7 (Vα14^−) and the rat basophil leukemia RBL.CD1d transfectant line were used as described in Park, S-H et al., J. Immunol. 160 3128-34 (1998), incorporated herein by reference in its entirety. The human polyclonal Vα24Vβ11 NKT line was derived by repeated αGalCer stimulation of healthy human PBL in vitro and maintained by PHA and IL2 restimulation, and two different subclones, CD4 and DN, were used in experiments. Griffonia Simplicifolia isolectin B4 (IB4) was from Vector Laboratories, and anti-human CD1d mAb 51 was obtained from Dr. S. Porcelli. For stimulation with synthetic glycolipids, APCs were pulsed for 6 hours with various concentrations of lipids (from stock solution in DMSO), washed and incubated with NKT cell hybridoma or cell lines for 18-24 hours.

[1] = tested on: mouse Vα14 hybridoma DN32.D3; assay: Stimulation of mouse Vα14 NKT hybridomas by glycolipids with bone marrow-derived dendritic cells (CTLL IL2 bioassay); assay type: cell-based; conditions: for presentation to DN32.D3 by Hexb−/− cells: bone marrow-derived DC from Hexb−/− mice; for stimulation of mouse Vα14 NKT cells: in the presence of antigen-presenting cells
Procedure: FIG. 4A depicts stimulation of mouse Vα14 hybridoma DN32.D3 by iGb3 and iGb4 with bone marrow-derived DC as CD1d-expressing antigen-presenting cells from Hexb^−/−, Hexb^−/− and CD1-TD mice, as indicated.
as §1

non-Vα14 hybridomas = assay: Stimulation of non-Vα14 hybridomas by glycolipid presented by bone marrow-derived dendritic cells; assay type: cell-based, mouse; conditions: not shown
Procedure: as §1, with “For stimulation with synthetic glycolipids, APCs were pulsed for 6 hours with various concentrations of lipids (from stock solution in DMSO), washed and incubated with NKT cell hybridoma or cell lines for 18-24 hours.” left out

[2] = molecular target: T1, mCD1d-GT (mouse CD1d preloaded with GT1b) (Mus musculus, UniProt P11609); assay: CD1d lipid loading in the presence of saposin B, visualized by isoelectrofocusing; assay type: binding; conditions: cell-free; for replacement of GT1b preloaded onto CD1d: 2 μM mCD1d-GT, 25 μM isogloboside, with or without 5 μM saposin B
T1 construct: made in house; host or cells: fly expression system
T1 sequence (P11609 19-297 limits assumed): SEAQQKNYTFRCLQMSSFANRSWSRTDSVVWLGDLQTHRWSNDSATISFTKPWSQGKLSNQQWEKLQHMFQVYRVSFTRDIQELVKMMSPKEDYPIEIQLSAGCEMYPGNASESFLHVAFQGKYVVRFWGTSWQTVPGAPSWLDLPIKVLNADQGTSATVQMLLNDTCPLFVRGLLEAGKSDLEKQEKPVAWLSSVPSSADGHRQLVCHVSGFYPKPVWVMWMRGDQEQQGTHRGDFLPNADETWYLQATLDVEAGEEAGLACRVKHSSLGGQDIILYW
T1 sequence (P01887 21-119 partner): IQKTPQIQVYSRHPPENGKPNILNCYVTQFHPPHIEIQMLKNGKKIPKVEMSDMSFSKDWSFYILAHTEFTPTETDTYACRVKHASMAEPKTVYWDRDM
Description: (§2) FIG. 4C left panel depicts in vitro loading of iGb3 and iGb4 onto recombinant CD1d in the presence of saposin B, visualized by isoelectrofocusing.
(§3) CD1d lipid loading and cell-free presentation assay. Purified complexes of CD1 d-GT were made and exchange of lipid in these complexes was quantified from isoelectric focusing gels as previously described by Cantu C III, et al., J. Immunol. 170, 4673-82 (2003), incorporated herein by reference in its entirety. Saposin-mediated loading of lipid was performed with recombinant human saposin B as described in Zhou D et al., Science 303, 523-27 (2004), incorporated herein by reference in its entirety, and with mouse saposin B. Recombinant mouse saposin B was expressed in a fly expression system and purified in the same manner used for production of mouse CD1d, described in Benlagha K, et al., J. Exp. Med 191, 1895-1903 (2000), incorporated herein by reference in its entirety. […] Stimulation of the NKT cell hybridoma DN32.D3 was measured. Briefly, mouse CD1d protein was coated for 24 h at 1 μg/well in phosphate-buffered saline (PBS) on 96-well plates. Plates were washed three times with PBS and then incubated for another 24 h with a constant lipid concentration of 6 μg/ml and various concentrations of mouse saposin B. Plates were washed three times with PBS; then 2×10^4 hybridoma cells were added. Supernatants were collected after 24 h to measure IL-2 release.

[3] = tested on: NKT cell hybridoma DN32.D3; assay: Cell-free presentation to DN32.D3 by plate-bound CD1d in the presence of saposin B (IL-2 release); assay type: cell-based, mouse; conditions: lipid 6 μg/ml
Description: as §2
as §3, with “Supernatants were collected after 24 h to measure IL-2 release.” left out

hVα24 NKT line = assay: Inhibition of the response of the hVα24 NKT line to PBMC-derived dendritic cells (GMCSF release, ELISA); assay type: cell-based, human; conditions: PBMC-derived dendritic cells plus exogenous ligand
Procedure: as §1, with “Cytokines released in the culture supernatant were measured by standard ELISA for human IL-4 and IFN-γ (Pharmingen-Becton Dickinson, CA), and the indicator CTLL IL2 bioassay for mouse hybridomas.” left out

Vα14 DN32.D3 hybridoma = Vα14 DN32.D3 hybridoma stimulation by spleen cells pulsed with αGalCer variants; assay type: cell-based, mouse
Description: FIG. 2B depicts Vα14 DN32.D3 hybridoma stimulation responses to spleen cells from Hexb^−/− (o) and Hexb^−/− littermates (●), αGalAl-(▪) and CD1-TD knock-in (▴) mice. Spleen cells were pulsed with αGalCer variants as indicated prior to hybridoma stimulation. The data are representative of 2 separate experiments.
as §1, with “hours. […]” for “hours.”

[4] = presented by irradiated PBMC, listed as Synthetic iGb3
[5] = presented by irradiated PBMC, listed as iGb3 produced in vitro by action of iGb3 synthase
[6] = presented by irradiated PBMC, listed as natural iGb3 purified from cat intestine

Row | Molecule | stimulation and expansion of human NKT cells (frequency of hVα24 NKT PBL) (human Vα24 NKT cells) | stimulation of human Vα24 NKT cells (human Vα24 NKT line) | presentation to DN32.D3 by Hexb−/− cells [1] | stimulation of mouse Vα14 NKT cells [1] | loading onto mCD1d-GT by mouse versus human saposin B [2] | replacement of GT1b preloaded onto CD1d [2] | direct stimulation of Vα14 NKT cells by CD1d/lipid complexes [3] | presentation to DN32.D3 by α-Galactosidase A (αGalA)−/− cells (Vα14 DN32.D3 hybridoma) | other results
1 | CCCCCCCCCCCCC/C=C/[C@@H](O)[C@H](CO[C@@H]1O[C@H](CO)[C@@H](O[C@@H]2O[C@H](CO)[C@H](O)[C@H](O[C@H]3O[C@H](CO)[C@H](O)[C@H](O)[C@H]3O)[C@H]2O)[C@H](O)[C@H]1O)NC(=O)CCCCCCCCCCCCCCCCCCCCCCCCC [iGb3, isoglobotrihexosylceramide] | selectively stimulated and expanded | potent stimulator | presented | potent stimulator | equally loaded | partial replacement; also recorded: required saposin B | directly stimulated |  | Th1 (IFNγ) cytokine secretion by polyclonal human NKT line (human Vα24 NKT line; [4]): stimulated potent; Th2 (IL4) cytokine secretion by polyclonal human NKT line (human Vα24 NKT line; [4]): stimulated potent; Th1 (IFNγ) cytokine secretion by polyclonal human NKT line (human Vα24 NKT line; [5]): levels comparable to αGalCer; Th2 (IL4) cytokine secretion by polyclonal human NKT line (human Vα24 NKT line; [5]): levels comparable to αGalCer; Th1 (IFNγ) cytokine secretion by polyclonal human NKT line (human Vα24 NKT line; [6]): levels comparable to αGalCer; Th2 (IL4) cytokine secretion by polyclonal human NKT line (human Vα24 NKT line; [6]): levels comparable to αGalCer; cloned CD4 and DN human NKT lines showing cytokine secretion (human Vα24 NKT line; presented by irradiated PBMC, lines responding/tested, not shown): 2/2; other individual mVα14 hybridomas stimulated ([1]; bone marrow-derived dendritic cells, hybridomas responding/tested, not shown): 5/5; stimulation of mVα14 NKT cell hybridoma DN32.D3 ([1]; presented by CD1d-expressing bone marrow-derived dendritic cells): stimulated; stimulation of non-Vα14 hybridomas (non-Vα14 hybridomas): failed to stimulate 3/3
2 | CCCCCCCCCCCCC/C=C/[C@@H](O)[C@H](COC1OC(CO)C(OC2OC(CO)C(O)C(OC3OC(CO)C(O)C(OC4OC(CO)C(O)C(O)C4NC(C)=O)C3O)C2O)C(O)C1O)NC(=O)CCCCCCCCCCCCCCCCCCCCCCCCC (stereo partly shown) [iGb4] |  | stimulatory | failed to present | stimulatory | equally loaded | partial replacement; also recorded: required saposin B | very weak response |  | 
3 | CCCCCCCCCCCCCCCCCCCCCCCCCC(=O)N[C@@H](CO[C@H]1O[C@H](CO)[C@H](O)[C@H](O)[C@H]1O)[C@H](O)[C@H](O)CCCCCCCCCCCCCC [αGalCer, α-galactosylceramide, reference compound] | selectively stimulated and expanded |  |  |  |  |  |  |  | GMCSF release in the supernatant, control without lectin (hVα24 NKT line): 939 pg/mL
4 | Gal α1,2 Gal αCer |  |  |  |  |  |  |  | selective defect | 
5 | Gal α1,4 Gal αCer |  |  |  |  |  |  |  | selective defect | 
6 | GalNAc β1,4 Gal αCer |  |  |  |  |  |  |  |  | presentation to DN32.D3 by Hexb−/− cells (Vα14 DN32.D3 hybridoma): selective defect
